Experiments:
[1] = system: VEGF promoter; experiment: VEGF promoter luciferase assay in U87MG cells; format: cell-based, human; details: DFO 250 μM, 18 hours
Experimental: FIGS. 31A-31B depict U87MG cells transiently co-transfected with a full-length human VEGF promoter luciferase plasmid and a pGL4.74 [hRluc/TK] plasmid as an internal control. Cells were treated with SEMA3F (640 ng/ml for 30 minutes) prior to the addition of DFO (250 μM) or the culture of cells in a hypoxia chamber (1% 02). After 18 hours, VEGF promoter luciferase activity was analyzed. FIG. 31C depicts a graph of U87MG cells transiently cotransfected with our VEGF promoter luciferase and pGL4.74 [hRluc/TK] plasmids and with either a pcDNA3.1 empty vector or our constitutively active Akt (2DAkt). The cells were treated with SEMA3F for 30 minutes prior to the addition of DFO. After 18 hours, VEGF promoter luciferase activity was analyzed. FIG. 31D depicts a graph of parental U87MG cells treated with SEMA3F, rapamycin (10 nM), Torin 1 (10 nM) alone or in combination as indicated for 30 minutes prior to the addition of DFO, and culture supernatants were collected after 18 hours; VEGF protein levels were analyzed by ELISA. In each panel data are representative of 3 independent experiments. Bar graphs represent the mean±SD of n=3 experiments performed in triplicate, *, p<0.01 vs. control.
SEMA3F inhibits hypoxia-induced production of VEGF via the mTOR pathway. The local expression and regulation of VEGF is key to many physiological and pathological processes (40, 41). These findings indicate that SEMA3F can target the transcriptional activation of VEGF via its ability to target mTOR kinase activity (36, 42). To test the effect of SEMA3F on the regulation of VEGF expression, U87MG cells were transfected with a full-length 2.6 kb VEGF promoter-luciferase construct and exposed to the hypoxia mimetic agent desferrioxamine (DFO) or hypoxia (1% 02). […] To test the relative effect of SEMA3F on mTORC1/C2, U87MG cells transiently co-transfected with the 2DAkt construct and the full length VEGF promoter reporter construct, and the cells cultured in the absence or presence of SEMA3F. […] Finally, the effect of SEMA3F on the secretion of VEGF into conditioned media (by ELISA) was determined in the absence or presence of DFO.
Transfection and Luciferase assay: U87MG cells were transiently transfected with plasmid constructs (pcDNA3.1, WT mTOR, 2DAkt, VEGF luciferase reporter plasmid or pGL4.74 [hRluc/TK]) as indicated using Lipofectamine 2000 reagent (Life Technologies) according to the manufacturer's instructions. After 18 hours, cells were treated as outlined in each experimental design. VEGF promoter activity was analyzed using a Dual-Luciferase Reporter Assay System (Promega), and luciferase activity was normalized by Renilla luciferase as an internal control.

[2] = system: VEGF; experiment: VEGF protein in conditioned media by ELISA, U87MG cells; format: cell-based, human
Text: The VEGF-A (DVE00) ELISA kit was obtained from R&D Systems (Minneapolis, MN). […] Desferrioxamine (DFO) was purchased from Sigma-Aldrich, and the MEK inhibitor (U0126) was purchased from EMD-Millipore (Billerica, MA). pGL4.74 [hRluc/TK] vector (Promega Madison, WI) was used as an internal control in luciferase assay.

[3] = system: glioblastoma cells and EC; details: reference 12; cited from earlier work
[4] = system: U87MG cells; experiment: Western blot of PI-3K/Akt-mTOR and MAPK signaling in U87MG cells; format: cell-based, human; details: U87MG cells
Experimental: U87MG which express NRP-2 were used for this assay.
To determine the effect of SEMA3F on intracellular signaling responses, levels of phosphokinases in the NRP2-expressing human glioblastoma cell line U87MG were profiled.
Western blotting: Proteins within each sample were separated by SDS-PAGE and transferred to nitrocellulose membranes. The membranes were blocked with 4% skimmed milk in TBS-T (0.1% Tween 20 in tris-buffered saline [TBS]) for 30 minutes, followed by incubation with the primary antibody. After washing with TBS-T, membranes were incubated with the appropriate horseradish peroxidase-conjugated secondary antibody, and immunoreactivity was detected by using ECL detection reagents.

[5] = rapamycin alone 10 nM for 90 minutes, vs untreated

In the case of `CC(=O)N(O)CCCCCNC(=O)CCC(=O)N(O)CCCCCNC(=O)CCC(=O)N(O)CCCCCN` [DFO, desferrioxamine, reference compound], the “induction of VEGF promoter activity” value [1] is reported as 16 fold and the “increase of VEGF production” value ([2]; DFO, compared to untreated cells) is reported as 160%.
In the case of `Cc1ccc(NC(=O)c2ccc(CN3CCN(C)CC3)cc2)cc1Nc1nccc(-c2cccnc2)n1` [Gleevec, imatinib], the “SEMA3-mediated loss of stress fiber formation and motility” value [3] is given as “abrogates SEMA3-mediated loss of stress fiber formation and motility”.
In the case of `CCC(=O)N1CCN(c2ccc(-n3c(=O)ccc4cnc5ccc(-c6cnc7ccccc7c6)cc5c43)cc2C(F)(F)F)CC1` [Torin 1], the “VEGF levels, combination of SEMA3F and Torin 1” value ([2]; DFO, compared to SEMA3F or Torin 1 alone) is reported as “slightly (but significantly p<0.05) inhibited VEGF levels” and the “DFO-induced VEGF protein secretion” value ([2]; SEMA3F, rapamycin 10 nM or Torin 1 10 nM, 30 minutes prior to DFO, supernatants after 18 hours) is reported as “significantly reduced”.
In the case of `N#CC(=C(/N)Sc1ccccc1N)/C(C#N)=C(\N)Sc1ccccc1N` [U0126, reference compound], the “effect of MEK inhibitor on SEMA3F regulation of pAkt” value ([4]; U0126 10 μM 30 minutes prior to SEMA3F 640 ng/ml) is reported as “did not modulate”.
For `CO[C@H]1C[C@@H]2CC[C@@H](C)[C@@](O)(O2)C(=O)C(=O)N2CCCC[C@H]2C(=O)O[C@H]([C@H](C)C[C@@H]2CC[C@@H](O)[C@H](OC)C2)CC(=O)[C@H](C)/C=C(\C)[C@@H](O)[C@@H](OC)C(=O)[C@H](C)C[C@H](C)/C=C/C=C/C=C/1C` [rapamycin, reference compound], the “induction in the level of pAkt (S473)” value [4, 5] was 2.0 fold and the “induction in the level of pAkt (T308)” value [4, 5] was 1.9 fold.

Reference: patent publication US12397037B2, “Methods and compositions for immunomodulation” (CHILDREN'S MEDICAL CENTER CORPORATION, priority 2014, dated 2025)
